ChEMBL document CHEMBL1201862, “PubChem BioAssay data set” (2004)
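Cultured in 96-well plates, cells were exposed to test compound for 48 hours across five concentrations. GI50 marks 50% less growth.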 Calls of active or inactive are those of the source. Cut-off read from the data, not from the text of the source: active = GI50 up to about 1.1 µM and inactive = higher.

Experiments:
Test in all cases: NCI anticancer screen, dose series, 48 h
OVCAR-4 = system: OVCAR-4
RXF 393 = system: RXF 393
NCI/ADR-RES = system: NCI/ADR-RES
Malme-3M = system: Malme-3M
786-0 = system: 786-0
SF-295 = system: SF-295
OVCAR-3 = system: OVCAR-3
LOX IMVI = system: LOX IMVI
OVCAR-5 = system: OVCAR-5
RPMI-8226 = system: RPMI-8226
HCT-15 = system: HCT-15
UACC-257 = system: UACC-257
MDA-MB-231 = system: MDA-MB-231
MOLT-4 = system: MOLT-4
U-251 = system: U-251
SK-MEL-28 = system: SK-MEL-28
NCI-H226 = system: NCI-H226
OVCAR-8 = system: OVCAR-8
T47D = system: T47D
K562 = system: K562

SMILES	GI50 (OVCAR-4)	GI50 (RXF 393)	GI50 (NCI/ADR-RES)	GI50 (Malme-3M)	GI50 (786-0)	GI50 (SF-295)	GI50 (OVCAR-3)	GI50 (LOX IMVI)	GI50 (OVCAR-5)	GI50 (RPMI-8226)	GI50 (HCT-15) [µM]	GI50 (UACC-257)	GI50 (MDA-MB-231)	GI50 (MOLT-4)	GI50 (U-251)	GI50 (SK-MEL-28)	GI50 (NCI-H226)	GI50 (OVCAR-8)	GI50 (T47D)	GI50 (K562)
CC1OC(OC2C(Oc3cc(O)c4c(c3)O[C@H](c3ccc(O)cc3)CC4=O)OC(CO)C(O)C2O)C(O)C(O)C1O (stereo partly specified)	> 100 µM (inactive)	> 100 µM (inactive)	> 100 µM (inactive)	> 100 µM (inactive)	> 100 µM (inactive)	> 100 µM (inactive)	> 100 µM (inactive)	> 100 µM (inactive)	> 100 µM (inactive)	> 100 µM (inactive)	> 100	> 100 µM (inactive)	> 100 µM (inactive)	> 100 µM (inactive)	> 100 µM (inactive)	> 100 µM (inactive)	> 100 µM (inactive)	> 100 µM (inactive)	> 100 µM (inactive)	–
N#Cc1nc(C(O)c2ccccc2)oc1N (stereo unspecified)	–	17.9 µM (inactive)	> 100 µM (inactive)	> 100 µM (inactive)	> 100 µM (inactive)	> 100 µM (inactive)	> 100 µM (inactive)	> 100 µM (inactive)	> 100 µM (inactive)	> 100 µM (inactive)	–	> 100 µM (inactive)	> 100 µM (inactive)	> 100 µM (inactive)	> 100 µM (inactive)	> 100 µM (inactive)	> 100 µM (inactive)	> 100 µM (inactive)	> 100 µM (inactive)	> 100 µM (inactive)
COc1cc(Nc2nc3ccccc3nc2C(=O)O)cc(OC)c1OC	–	> 100 µM (inactive)	23 µM (inactive)	> 100 µM (inactive)	75.3 µM (inactive)	23.9 µM (inactive)	45.8 µM (inactive)	53 µM (inactive)	> 100 µM (inactive)	70 µM (inactive)	32.4	87.3 µM (inactive)	16.4 µM (inactive)	> 100 µM (inactive)	> 100 µM (inactive)	30.1 µM (inactive)	> 100 µM (inactive)	> 100 µM (inactive)	24.3 µM (inactive)	> 100 µM (inactive)
